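Results reflect a 48-hour exposure of cells in 96-well plates to compound at five concentrations. GI50 marks 50% less growth.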 The source made the active and inactive calls. Cut-off read from the data, not from the text of the source: active = GI50 up to about 1.1 µM and inactive = higher.
Experiments:
Experiment in all cases: growth of human tumour cells (NCI), 48 h
[1] = test system: DLD-1
[2] = test system: 786-0
[3] = test system: M14
[4] = test system: ACHN
[5] = test system: UO-31
[6] = test system: T47D
[7] = test system: SF-539
[8] = test system: Malme-3M
[9] = test system: SW-620
[10] = test system: SR
[11] = test system: HCC 2998
[12] = test system: NCI-H522
[13] = test system: NCI/ADR-RES
[14] = test system: SNB-19
[15] = test system: A498
[16] = test system: CCRF-CEM
[17] = test system: BT-549
[18] = test system: DU-145
[19] = test system: NCI-H23
[20] = test system: PC-3
[21] = test system: UACC-62
[22] = test system: OVCAR-4
[23] = test system: IGROV-1
[24] = test system: CAKI-1
[25] = test system: OVCAR-3
[26] = test system: SK-OV-3
[27] = test system: UACC-257
[28] = test system: DMS-273
[29] = test system: A549
[30] = test system: HCT-15
[31] = test system: XF498
[32] = test system: OVCAR-8
[33] = test system: SNB-75
[34] = test system: MCF7
[35] = test system: DMS-114
[36] = test system: SK-MEL-5
[37] = test system: HOP-92
[38] = test system: COLO 205
[39] = test system: RXF 393
[40] = test system: U-251
[41] = test system: LXFL 529
[42] = test system: SK-MEL-28
[43] = test system: OVCAR-5
[44] = test system: SF-268
[45] = test system: HOP-18
[46] = test system: HT-29
[47] = test system: K562
[48] = test system: KM12
[49] = test system: RPMI-8226
[50] = test system: SK-MEL-2
[51] = test system: MOLT-4
[52] = test system: EKVX
[53] = test system: LOX IMVI
[54] = test system: HL-60
[55] = test system: MDA-MB-231
[56] = test system: HCT-116
[57] = test system: KM-20L2
[58] = test system: SN12C
[59] = test system: HOP-62
[60] = test system: NCI-H226
[61] = test system: SF-295
[62] = test system: SNB-78
[63] = test system: MDA-MB-435
[64] = test system: NCI-H460
[65] = test system: MDA-N
[66] = test system: M19-MEL
[67] = test system: TK-10

C=C1CC2CC[C@@]34C[C@H]5O[C@@H]6C(O[C@H]7CC[C@H](CC(=O)OC8[C@H](C)C9OC%10C[C@]%11(C[C@@H]%12O[C@]%13(C[C@H](C)[C@@H]%14O[C@H]([C@H](O)C[C@H](O)CO)C[C@@H]%14O%13)C[C@H](C)[C@@H]%12O%11)OC%10CC9O[C@H]8C[C@H]8O[C@H](CC[C@@H]1O2)C[C@@H](C)C8=C)O[C@H]7[C@@H]6O3)[C@@H]5O4 (some centres not stated)
GI50 [1]: 1.8 nM (active)
GI50 [2]: 2.46 nM (active)
GI50 [3]: 1.43 nM (active)
GI50 [4]: 4.11 nM (active)
GI50 [5]: 5.39 nM (active)
GI50 [6]: 2650 nM (inactive)
GI50 [7]: 0.676 nM (active)
GI50 [8]: 1.31 nM (active)
GI50 [9]: 0.482 nM (active)
GI50 [10]: 0.498 nM (active)
GI50 [11]: 2.01 nM (active)
GI50 [12]: 0.211 nM (active)
GI50 [13]: 0.516 nM (active)
GI50 [14]: 1.91 nM (active)
GI50 [15]: 1.08 nM (active)
GI50 [16]: 0.588 nM (active)
GI50 [17]: 1310 nM (inactive)
GI50 [18]: 0.113 nM (active)
GI50 [19]: 0.605 nM (active)
GI50 [20]: 0.106 nM (active)
GI50 [21]: 0.469 nM (active)
GI50 [22]: 5.05 nM (active)
GI50 [23]: 2.18 nM (active)
GI50 [24]: 0.491 nM (active)
GI50 [25]: 0.303 nM (active)
GI50 [26]: 2.21 nM (active)
GI50 [27]: 0.8 nM (active)
GI50 [28]: 0.538 nM (active)
GI50 [29]: 1.47 nM (active)
GI50 [30]: 0.935 nM
GI50 [31]: 1.23 nM (active)
GI50 [32]: 2.22 nM (active)
GI50 [33]: 0.321 nM (active)
GI50 [34]: 0.255 nM (active)
GI50 [35]: 0.37 nM (active)
GI50 [36]: 0.24 nM (active)
GI50 [37]: 1.66 nM (active)
GI50 [38]: 0.492 nM (active)
GI50 [39]: 0.674 nM (active)
GI50 [40]: 0.899 nM (active)
GI50 [41]: 1.29 nM (active)
GI50 [42]: 2.19 nM (active)
GI50 [43]: 8.45 nM (active)
GI50 [44]: 3.76 nM (active)
GI50 [45]: < 10 nM (active)
GI50 [46]: 0.372 nM (active)
GI50 [47]: 0.484 nM (active)
GI50 [48]: 0.46 nM (active)
GI50 [49]: 0.255 nM (active)
GI50 [50]: 1.49 nM (active)
GI50 [51]: 0.752 nM (active)
GI50 [52]: 0.141 nM (active)
GI50 [53]: 0.597 nM (active)
GI50 [54]: 0.237 nM (active)
GI50 [55]: 0.728 nM (active)
GI50 [56]: 0.513 nM (active)
GI50 [57]: 0.395 nM (active)
GI50 [58]: 4.05 nM (active)
GI50 [59]: 1.31 nM (active)
GI50 [60]: 2.31 nM (active)
GI50 [61]: 0.46 nM (active)
GI50 [62]: 2.61 nM (active)
GI50 [63]: 0.1 nM (active)
GI50 [64]: 0.859 nM (active)
GI50 [65]: 0.1 nM (active)
GI50 [66]: 0.618 nM (active)
GI50 [67]: 6.81 nM (active)

From ChEMBL document CHEMBL1201862, “PubChem BioAssay data set” (2004)
